Data from patent US20230312542A1, “HYDROXYPYRROLIDINE DERIVATIVE AND MEDICINAL APPLICATION THEREOF” (MITSUBISHI TANABE PHARMA CORPORATION, priority 2020, published 2023).

Target: VHL (co-expressed with Elongin B and Elongin C) (Homo sapiens (Human), UniProt P40337)
Assay: Measurement of intermolecular interactions using surface plasmon resonance (Biacore T200), Kd value for VHL
Type: binding
Conditions: SPR, immobilized VHL, 25° C.; read-out: Kd
Source text: As the device, Biacore T200 (manufactured by GE Healthcare) was used. VHL was obtained by co-expressing Elongin B and Elongin C with a Twin-Strep-tag added to the N-terminus. As the sensor chip, Sensor chip CM5 (manufactured by GE Healthcare) was used. First, Strep-Tactin XT (manufactured by GE Healthcare) was immobilized on the sensor chip by amine coupling. Thereafter, VHL was immobilized using the affinity of Strep-Tactin XT and Twin-Strep-tag, and VHL was further immobilized on the sensor chip by amine coupling.
As the running buffer, a mixed solution of 20 mM HEPES pH 7.5, 150 mM NaCl, 1 mM TCEP, 0.005% Tween 20, and 2% DMSO was used. […] The Contact time and the Dissociation time were determined according to the properties of the compounds. For many compounds, 60 seconds and 120 seconds were respectively used.

Sequence of VHL (co-expressed with Elongin B and Elongin C) (P40337 whole entry, looked up): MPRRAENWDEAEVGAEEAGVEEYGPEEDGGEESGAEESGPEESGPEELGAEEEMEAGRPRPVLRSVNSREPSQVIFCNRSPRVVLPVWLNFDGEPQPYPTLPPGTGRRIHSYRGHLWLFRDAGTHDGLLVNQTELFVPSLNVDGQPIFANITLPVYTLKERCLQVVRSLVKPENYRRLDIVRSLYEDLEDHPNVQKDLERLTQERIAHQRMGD
Sequence of VHL (co-expressed with Elongin B and Elongin C) (Q15370 whole entry partner, looked up): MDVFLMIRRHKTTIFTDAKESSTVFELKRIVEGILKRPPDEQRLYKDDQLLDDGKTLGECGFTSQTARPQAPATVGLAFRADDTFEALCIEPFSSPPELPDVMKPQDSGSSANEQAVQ
Sequence of VHL (co-expressed with Elongin B and Elongin C) (Q15369 whole entry partner, looked up): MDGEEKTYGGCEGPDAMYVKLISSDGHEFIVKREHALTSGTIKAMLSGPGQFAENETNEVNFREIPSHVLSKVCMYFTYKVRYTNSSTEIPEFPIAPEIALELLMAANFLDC

Structure (SMILES)	Kd [µM]
COc1ccc(-c2cnc([C@@H]3C[C@@H](O)CN3C(=O)C(c3cc(OC)no3)C(C)C)[nH]2)cc1 (stereo partly drawn) [Example 78, 1-[(2S,4R)-4-hydroxy-2-[5-(4-methoxyphenyl)-1H-imidazol-2-yl]pyrrolidin-1-yl]-2-(3-methoxy-1,2-oxazol-5-yl)-3-methylbutan-1-one]	1 to 10
COc1cc(C(C(=O)N2C[C@H](O)C[C@H]2c2nc(C(=O)N(C)CC3CCN(Cc4ccccc4F)CC3)c[nH]2)C(C)C)on1 (stereo partly drawn) [Example 155, N-[[1-[(2-fluorophenyl)methyl]-4-piperidyl]methyl]-2-[(2S,4R)-4-hydroxy-1-[2-(3-methoxyisoxazol-5-yl)-3-methylbutanoyl]pyrrolidin-2-yl]-N-methyl-1H-imidazole-4-carboxamide]	1 to 10
CC(=O)N[C@H](C(=O)N1C[C@H](O)C[C@H]1c1nc(C(=O)N(C)Cc2cccc3ccccc23)c[nH]1)C(C)(C)C [Example 31, 2-[(2S,4R)-1-[(2S)-2-acetamido-3,3-dimethylbutanoyl]-4-hydroxypyrrolidin-2-yl]-N-methyl-N-(naphthalen-1-ylmethyl)-1H-imidazole-4-carboxamide]	1 to 10
COc1cc(C(C(=O)N2C[C@H](O)C[C@H]2c2nccn2Cc2cncc(-c3ccc(F)cc3)c2)C(C)C)on1 (stereo partly drawn) [Example 113, 1-[(2S,4R)-2-[1-[[5-(4-fluorophenyl)-3-pyridyl]methyl]imidazol-2-yl]-4-hydroxypyrrolidin-1-yl]-2-(3-methoxyisoxazol-5-yl)-3-methylbutan-1-one]	10 to 50
COc1cccc(CN(C)C(=O)c2c[nH]c([C@@H]3C[C@@H](O)CN3C(=O)[C@@H](NC(C)=O)C(C)(C)C)n2)c1 [Example 24, 2-[(2S,4R)-1-[(2S)-2-acetamido-3,3-dimethylbutanoyl]-4-hydroxypyrrolidin-2-yl]-N-[(3-methoxyphenyl)methyl]-N-methyl-1H-imidazole-4-carboxamide]	1 to 10
CC(=O)N[C@H](C(=O)N1C[C@H](O)C[C@H]1c1nc(C(=O)N(C)Cc2ccccc2F)c[nH]1)C(C)(C)C [Example 17, 2-[(2S,4R)-1-[(2S)-2-acetamido-3,3-dimethylbutanoyl]-4-hydroxypyrrolidin-2-yl]-N-[(2-fluorophenyl)methyl]-N-methyl-1H-imidazole-4-carboxamide]	1 to 10
COc1cc(C(C(=O)N2C[C@H](O)C[C@H]2c2nc(C(=O)N3CC(c4ccccc4)C3)c[nH]2)C(C)C)on1 (stereo partly drawn) [Example 108, 1-[(2S,4R)-4-hydroxy-2-[4-(3-phenylazetidine-1-carbonyl)-1H-imidazol-2-yl]pyrrolidin-1-yl]-2-(3-methoxyisoxazol-5-yl)-3-methylbutan-1-one]	< 1
COc1cccc(-c2nc([C@@H]3C[C@@H](O)CN3C(=O)C(c3cc(OC)no3)C(C)C)[nH]c2-c2cccc(OC)c2)c1 (stereo partly drawn) [Example 76, 1-[(2S,4R)-2-[4,5-bis(3-methoxyphenyl)-1H-imidazol-2-yl]-4-hydroxypyrrolidin-1-yl]-2-(3-methoxy-1,2-oxazol-5-yl)-3-methylbutan-1-one]	1 to 10
COc1cc(C(C(=O)N2C[C@H](O)C[C@H]2c2nc(C(=O)N(Cc3ccc(-c4scnc4C)cc3)CC(F)(F)F)c[nH]2)C(C)C)on1 (stereo partly drawn) [Example 40, 2-[(2S,4R)-4-hydroxy-1-[2-(3-methoxy-1,2-oxazol-5-yl)-3-methylbutanoyl]pyrrolidin-2-yl]-N-[[4-(4-methyl-1,3-thiazol-5-yl)phenyl]methyl]-N-(22,2-trifluoroethyl)-1H-imidazole-4-carboxamide]	1 to 10
CC(=O)N[C@H](C(=O)N1C[C@H](O)C[C@H]1c1nc(C(=O)N(C)Cc2ccc(C(F)(F)F)cc2)c[nH]1)C(C)(C)C [Example 22, 2-[(2S,4R)-1-[(2S)-2-acetamido-3,3-dimethylbutanoyl]-4-hydroxypyrrolidin-2-yl]-N-methyl-N-[[4-(trifluoromethyl)phenyl]methyl]-1H-imidazole-4-carboxamide]	1 to 10
CC(=O)N[C@H](C(=O)N1C[C@H](O)C[C@H]1c1nc(C(=O)N(C)Cc2ccccc2)c[nH]1)C(C)(C)C [Example 51, 2-[(2S,4R)-1-[(2S)-2-acetamido-3,3-dimethylbutanoyl]-4-hydroxypyrrolidin-2-yl]-N-benzyl-N-methyl-1H-imidazole-4-carboxamide]	1 to 10
CC(=O)N[C@H](C(=O)N1C[C@H](O)C[C@H]1c1nc(C(=O)N(C)Cc2ccc(F)cc2)c[nH]1)C(C)(C)C [Example 19, 2-[(2S,4R)-1-[(2S)-2-acetamido-3,3-dimethylbutanoyl]-4-hydroxypyrrolidin-2-yl]-N-[(4-fluorophenyl)methyl]-N-methyl-1H-imidazole-4-carboxamide]	1 to 10
COc1cc(C(C(=O)N2C[C@H](O)C[C@H]2c2nc(C(=O)N3CCC(c4ccncc4)CC3)c[nH]2)C(C)C)on1 (stereo partly drawn) [Example 139, 1-[(2S,4R)-4-hydroxy-2-[4-[4-(4-pyridyl)piperidine-1-carbonyl]-1H-imidazol-2-yl]pyrrolidin-1-yl]-2-(3-methoxyisoxazol-5-yl)-3-methylbutan-1-one]	1 to 10
CNC(=O)c1ccc(-c2cnc([C@@H]3C[C@@H](O)CN3C(=O)C(c3cc(OC)no3)C(C)C)[nH]2)cc1 (stereo partly drawn) [Example 97, 4-[2-[(2S,4R)-4-hydroxy-1-[2-(3-methoxy-1,2-oxazol-5-yl)-3-methylbutanoyl]pyrrolidin-2-yl]-1H-imidazol-5-yl]-N-methylbenzamide]	1 to 10
COc1cc(C(C(=O)N2C[C@H](O)C[C@H]2c2ncc(-c3cccc(-c4scnc4C)c3)[nH]2)C(C)C)on1 (stereo partly drawn) [Example 44, 1-[(2S,4R)-4-hydroxy-2-[5-[3-(4-methyl-1,3-thiazol-5-yl)phenyl]-1H-imidazol-2-yl]pyrrolidin-1-yl]-2-(3-methoxy-1,2-oxazol-5-yl)-3-methylbutan-1-one]	< 1
COc1ccc(CN(C)C(=O)c2c[nH]c([C@@H]3C[C@@H](O)CN3C(=O)[C@@H](NC(C)=O)C(C)(C)C)n2)cc1 [Example 25, 2-[(2S,4R)-1-[(2S)-2-acetamido-3,3-dimethylbutanoyl]-4-hydroxypyrrolidin-2-yl]-N-[(4-methoxyphenyl)methyl]-N-methyl-1H-imidazole-4-carboxamide]	1 to 10
COc1cc(C(C(=O)N2C[C@H](O)C[C@H]2c2nc(C(=O)N3CCC(OCc4ccccc4)CC3)c[nH]2)C(C)C)on1 (stereo partly drawn) [Example 141, 1-[(2S,4R)-2-[4-(4-benzyloxypiperidine-1-carbonyl)-1H-imidazol-2-yl]-4-hydroxypyrrolidin-1-yl]-2-(3-methoxyisoxazol-5-yl)-3-methylbutan-1-one]	1 to 10
CC(=O)N[C@H](C(=O)N1C[C@H](O)C[C@H]1c1ncc(Cc2cccc(-c3scnc3C)c2)[nH]1)C(C)(C)C [Example 91, N-[(2S)-1-[(2S,4R)-4-hydroxy-2-[5-[[3-(4-methyl-1,3-thiazol-5-yl)phenyl]methyl]-1H-imidazol-2-yl]pyrrolidin-1-yl]-3,3-dimethyl-1-oxobutan-2-yl]acetamide]	1 to 10
CC(=O)N[C@H](C(=O)N1C[C@H](O)C[C@H]1c1nc(C(=O)N(C)Cc2cccc(-c3scnc3C)c2)c[nH]1)C(C)(C)C [Example 29, 2-[(2S,4R)-1-[(2S)-2-acetamido-3,3-dimethylbutanoyl]-4-hydroxypyrrolidin-2-yl]-N-methyl-N-[[3-(4-methyl-1,3-thiazol-5-yl)phenyl]methyl]-1H-imidazole-4-carboxamide]	1 to 10
